Values joined by “and” are separate entries in the source; they are usually repeats but may differ in a detail not shown here. Equal entries are not always repeated. Marks after values point to notes of the source that are not given here.
Legend:
[1] = Integrated population pharmacokinetic model
[2] = doses of 15 mg or 20 mg in the absence of food; cited from earlier work
[3] = cited from earlier work
[4] = cited from earlier work; remark: listed apart in the source
[5] = final population PK model, comedication factor on CL/F

θCL/F, VTE >72 h (study-specific factor on CL/F) ([1]; VTE prevention, >72 hours, relative to VTE treatment (factor = 1)): 1.29 Proportion
θCL/F, VTE ≤72 h (study-specific factor on CL/F) ([1]; VTE prevention, ≤72 hours, relative to VTE treatment (factor = 1)): 1.04 Proportion
θCL/F, ACS (study-specific factor on CL/F) ([1]; acute coronary syndrome population, relative to VTE treatment (factor = 1)): 1.14 Proportion
θCL/F, AF (study-specific factor on CL/F) ([1]; atrial fibrillation population, relative to VTE treatment (factor = 1)): 0.85 Proportion and 0.849 Proportion
D50 (dose parameter of relative bioavailability function) ([1]; final population PK model): 14.4 mg
ω2 CL/F (interindividual variability) ([1]; final population PK model): 0.167 (10.3) ^d Variance
ω2 CL/F, V/F ([1]; final population PK model): 0.0674 Covariance
ω2 ka (interindividual variability) ([1]; final population PK model): 0.628 (32.8) ^d Variance
ω^2 V/F (interindividual variability) ([1]; final population PK model): 0.0391 (25.7) ^d Variance
ka (first-order absorption rate constant) ([1]; final population PK model (run 12), 4,918 patients, oral rivaroxaban): 0.821 h⁻¹
θCL/F, CYP3A4 inducer [1, 5]: 1.30 Proportion
θCL/F, Medium CYP3A4 inhibitor [1, 5]: 0.863 Proportion
θCL/F, Strong CYP3A4 inhibitor [1, 5]: 0.978 Proportion
θCL/F, Weak CYP3A4 inhibitor [1, 5]: 0.939 Proportion
θCL/F, PGP ([1]; final population PK model, comedication with P-gp inhibitor, factor on CL/F): 0.966 Proportion
θCL/F, CrCL ([1]; final population PK model, effect of Tietz-truncated CrCL on CL/F): 0.406 Power
θV/F, Age ([1]; final population PK model, effect of age on V/F): −0.189 Power
θV/F, Sex ([1]; final population PK model, effect of gender (female) on V/F): 0.889 Proportion
θCL/F, weight ([1]; final population PK model, effect of weight on CL/F): −0.278 Power
θV/F, weight ([1]; final population PK model, effect of weight on V/F): 0.216 Power
Fmax (relative bioavailability as a function of dose) ([1]; final population PK model, fixed, relative bioavailability fixed at 1.0 for a 10 mg dose): 1.25 Proportion
σ2 prop (residual variability) ([1]; final population PK model, proportional residual error): 0.203 (10.3) ^d Variance
Fmin (relative bioavailability as a function of dose) ([1]; final population PK model, relative to 10 mg dose (F = 1)): 0.590 Proportion
AUC increase in the presence of strong CYP3A4 inhibitors ([1]; integrated population PK model): 1.02 fold
SMILES: O=C(NC[C@H]1CN(c2ccc(N3CCOCC3=O)cc2)C(=O)O1)c1ccc(Cl)s1 [rivaroxaban]
bioavailability and absorption rate vs dose [2]: less than dose proportional
fraction of the dose eliminated renally as unchanged drug [3]: Approximately one‐third
Biopharmaceutics Classification System class [4]: class 2
permeability (BCS classification) [4]: high permeability
solubility (BCS classification) [4]: low solubility
